Data taken from the supplement of paper PMC10627819.

Legend:
B. subtilis 168 [1] = test: fitness (endpoint OD595 vs no drug) (fraction); higher = more growth
Procedure, shortened: (§1)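 Plates with 384 wells were inoculated at OD595 0.01 using 30 µl of TSB, LB Lennox or CY, or 55 µl for S. pneumoniae. Incubation was at 37 °C, with OD595 measured every 30 min for 14 h. Fitness is the stationary-phase transition optical density over the robust mean of no-drug control wells, after first-reading background subtraction; it is capped at 1.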

S. pneumoniae D39V [2] = test: as above
Procedure, shortened: as §1

B. subtilis 168 [3] = test: Bliss interaction score (quartile over a dose matrix) (fitness difference); higher = more antagonism (negative = synergy)
Procedure, shortened: (§2)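 Fitness is OD595 at stationary-phase entry relative to the plate's robust no-drug mean, capped at 1. Single-drug fitness was inferred from combinations. The Bliss score is observed minus product-expected fitness, summarised by quartiles over technical, biological and donor/recipient replicates.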

S. aureus DSM 20231 = test: as above
Procedure, shortened: as §2

S. aureus Newman = test: as above
Procedure, shortened: as §2

S. pneumoniae D39V [4] = test: as above
Procedure, shortened: as §2
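Wherever Bliss interaction score (quartile over a dose matrix) is given: first quartile when negative (synergy) and third quartile when positive (antagonism).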

C[C@H]1COc2c(N3CCN(C)CC3)c(F)cc3c(=O)c(C(=O)O)cn1c23 [Levofloxacin] + CCC(C)C1C(=O)NC(=C)C(=O)NC(C(=O)NC(CSCC(C(=O)N1)NC(=O)/C(=C/C)/NC(=O)C(C(C)CC)N)C(=O)NC2C(SCC(NC(=O)CNC(=O)C3CCCN3C2=O)C(=O)NC(CCCCN)C(=O)NC4C(SCC(NC(=O)CNC(=O)C(NC(=O)C(NC(=O)C(NC(=O)CNC4=O)C)CC(C)C)CCSC)C(=O)NC(CC(=O)N)C(=O)NC(CCSC)C(=O)NC(CCCCN)C(=O)NC5C(SCC6C(=O)NC(C(=O)NC(CSC(C(C(=O)N6)NC(=O)C(NC5=O)C)C)C(=O)NC(CO)C(=O)NC(C(C)CC)C(=O)NC(CC7=CN=CN7)C(=O)NC(C(C)C)C(=O)NC(=C)C(=O)NC(CCCCN)C(=O)O)CC8=CN=CN8)C)C)C)CC(C)C [Nisin]
fitness, B. subtilis 168 [1], one replicate, main component drawn
Details | first compound 0.001 µg/mL | first compound 0.002 µg/mL | first compound 0.0039 µg/mL | first compound 0.0078 µg/mL | first compound 0.0312 µg/mL | first compound 0.0625 µg/mL | first compound 0.125 µg/mL
partner 0.5 µg/mL | 0.923 | 0.904 | 0.898 | – | 0.0428 | 0.0426 | 0.0499
partner 1 µg/mL | 0.88 | 0.871 | 0.882 | – | 0.032 | 0.0609 | 0.0546
partner 1.25 µg/mL | – | 0.883 | 0.888 | 0.868 | – | – | –
partner 1.6 µg/mL | – | 0.744 | 0.734 | 0.701 | – | – | –
partner 2 µg/mL | 0.778 | 0.76 | 0.747 | – | 0.0482 | 0.0558 | 0.0347
partner 2.5 µg/mL | – | 0.696 | 0.319 | 0.598 | – | – | –
partner 3.2 µg/mL | – | 0.0329 | 0.0154 | 0.0243 | – | – | –
partner 4 µg/mL | – | – | – | – | 0.0425 | 0.0381 | 0.0437
partner 5 µg/mL | – | 0.0276 | 0.088 | 0.112 | – | – | –
partner 6.4 µg/mL | – | 0.0319 | 0.0555 | 0.0288 | – | – | –
partner 8 µg/mL | – | – | – | – | 0.0314 | 0.0402 | 0.0327
partner 16 µg/mL | – | – | – | – | 0.0291 | 0.0222 | 0.0121

S. pneumoniae D39V [2], main component drawn
Details | fitness
first compound 0.1725 µg/mL, partner 1.6 µg/mL | 0.157
first compound 0.1725 µg/mL, partner 3.2 µg/mL | 0.0386
first compound 0.1725 µg/mL, partner 6.4 µg/mL | 0.0067
first compound 0.2 µg/mL, partner 0.4275 µg/mL | 0.906
first compound 0.2 µg/mL, partner 0.855 µg/mL | 0.956
first compound 0.2 µg/mL, partner 1.71 µg/mL | 0.0809
first compound 0.345 µg/mL, partner 3.2 µg/mL | 0.0036
first compound 0.345 µg/mL, partner 6.4 µg/mL | 0.0023
first compound 0.4 µg/mL, partner 0.4275 µg/mL | 0.844
first compound 0.4 µg/mL, partner 1.71 µg/mL | 0.0708
first compound 0.69 µg/mL, partner 1.6 µg/mL | 0.0158
first compound 0.69 µg/mL, partner 3.2 µg/mL | 0.0153
first compound 0.69 µg/mL, partner 6.4 µg/mL | 0.0526
first compound 0.8 µg/mL, partner 0.4275 µg/mL | 0.298
first compound 0.8 µg/mL, partner 0.855 µg/mL | 0.102
first compound 0.8 µg/mL, partner 1.71 µg/mL | 0.0697

main component drawn
Details | Bliss interaction score
B. subtilis 168 [3] | 0.0523
S. aureus DSM 20231 | 0.0616
S. aureus Newman | -0.0668
S. pneumoniae D39V [4] | -0.0976

C[C@H]1COc2c(N3CCN(C)CC3)c(F)cc3c(=O)c(C(=O)O)cn1c23 [Levofloxacin] + CCN(CC)CCOC(=O)c1ccc(N)cc1 [Procaine]
fitness, one replicate
Details | first compound 0.001 µg/mL | first compound 0.002 µg/mL | first compound 0.0039 µg/mL | first compound 0.2 µg/mL | first compound 0.4 µg/mL | first compound 0.8 µg/mL
B. subtilis 168 [1], partner 85.5 µg/mL | 0.882 | 0.83 | 0.861 | – | – | –
B. subtilis 168 [1], partner 171 µg/mL | 0.923 | 0.824 | 0.869 | – | – | –
B. subtilis 168 [1], partner 342 µg/mL | 0.912 | 0.849 | 0.872 | – | – | –
S. pneumoniae D39V [2], partner 85.5 µg/mL | – | – | – | 0.924 | 0.815 | 0.372
S. pneumoniae D39V [2], partner 171 µg/mL | – | – | – | ≥ 1 | 0.853 | 0.49
S. pneumoniae D39V [2], partner 342 µg/mL | – | – | – | 0.923 | 0.86 | 0.501

fitness
Details | first compound 0.0312 µg/mL | first compound 0.0625 µg/mL | first compound 0.125 µg/mL | first compound 0.1725 µg/mL | first compound 0.345 µg/mL | first compound 0.69 µg/mL
B. subtilis 168 [1], partner 85.5 µg/mL | 0.0534 | 0.0358 | 0.0491 | – | – | –
B. subtilis 168 [1], partner 171 µg/mL | 0.0369 | 0.0387 | 0.0458 | – | – | –
B. subtilis 168 [1], partner 342 µg/mL | 0.0441 | 0.0408 | 0.0398 | – | – | –
S. pneumoniae D39V [2], partner 85.5 µg/mL | – | – | – | 0.937 | 0.878 | 0.602
S. pneumoniae D39V [2], partner 171 µg/mL | – | – | – | 0.946 | 0.87 | 0.62
S. pneumoniae D39V [2], partner 342 µg/mL | – | – | – | 0.918 | 0.877 | 0.625

Details | Bliss interaction score
B. subtilis 168 [3] | -0.0156
S. aureus DSM 20231 | -0.108
S. aureus Newman | 0.108
S. pneumoniae D39V [4] | 0.053

C[C@H]1COc2c(N3CCN(C)CC3)c(F)cc3c(=O)c(C(=O)O)cn1c23 [Levofloxacin] + CCC[C@@H]1C[C@@H](C(=O)N[C@@H]([C@H]2O[C@H](SC)[C@H](O)[C@@H](O)[C@H]2O)[C@@H](C)O)N(C)C1 [Lincomycin]
fitness, B. subtilis 168 [1], one replicate
Details | partner 0.1 µg/mL | partner 0.2 µg/mL | partner 0.4 µg/mL | partner 0.8 µg/mL | partner 1.6 µg/mL
first compound 0.001 µg/mL | – | – | 0.789 | 0.889 | 0.849
first compound 0.002 µg/mL | ≥ 1 | 0.968 | – | 0.797 | 0.767
first compound 0.0039 µg/mL | ≥ 1 | 0.975 | – | 0.743 | 0.806
first compound 0.0078 µg/mL | 0.997 | 0.961 | 0.945 | – | –

Details | fitness
B. subtilis 168 [1], first compound 0.002 µg/mL, partner 0.4 µg/mL | 0.897
B. subtilis 168 [1], first compound 0.0039 µg/mL, partner 0.4 µg/mL | 0.888
B. subtilis 168 [1], first compound 0.0312 µg/mL, partner 0.1 µg/mL | 0.0367
B. subtilis 168 [1], first compound 0.0312 µg/mL, partner 0.2 µg/mL | 0.0349
B. subtilis 168 [1], first compound 0.0312 µg/mL, partner 0.4 µg/mL | 0.0483
B. subtilis 168 [1], first compound 0.0625 µg/mL, partner 0.1 µg/mL | 0.0423
B. subtilis 168 [1], first compound 0.0625 µg/mL, partner 0.2 µg/mL | 0.0292
B. subtilis 168 [1], first compound 0.0625 µg/mL, partner 0.4 µg/mL | 0.0493
B. subtilis 168 [1], first compound 0.125 µg/mL, partner 0.1 µg/mL | 0.0441
B. subtilis 168 [1], first compound 0.125 µg/mL, partner 0.2 µg/mL | 0.0449
B. subtilis 168 [1], first compound 0.125 µg/mL, partner 0.4 µg/mL | 0.0489
S. pneumoniae D39V [2], first compound 0.1725 µg/mL, partner 0.2 µg/mL | 0.768
S. pneumoniae D39V [2], first compound 0.1725 µg/mL, partner 0.4 µg/mL | 0.7
S. pneumoniae D39V [2], first compound 0.1725 µg/mL, partner 0.8 µg/mL | 0.266
S. pneumoniae D39V [2], first compound 0.2 µg/mL, partner 0.215 µg/mL | 0.807
S. pneumoniae D39V [2], first compound 0.2 µg/mL, partner 0.43 µg/mL | 0.77
S. pneumoniae D39V [2], first compound 0.2 µg/mL, partner 0.86 µg/mL | 0.5
S. pneumoniae D39V [2], first compound 0.345 µg/mL, partner 0.2 µg/mL | 0.726
S. pneumoniae D39V [2], first compound 0.345 µg/mL, partner 0.4 µg/mL | 0.639
S. pneumoniae D39V [2], first compound 0.345 µg/mL, partner 0.8 µg/mL | 0.201
S. pneumoniae D39V [2], first compound 0.4 µg/mL, partner 0.215 µg/mL | 0.754
S. pneumoniae D39V [2], first compound 0.4 µg/mL, partner 0.43 µg/mL | 0.68
S. pneumoniae D39V [2], first compound 0.4 µg/mL, partner 0.86 µg/mL | 0.379
S. pneumoniae D39V [2], first compound 0.69 µg/mL, partner 0.2 µg/mL | 0.542
S. pneumoniae D39V [2], first compound 0.69 µg/mL, partner 0.4 µg/mL | 0.503
S. pneumoniae D39V [2], first compound 0.69 µg/mL, partner 0.8 µg/mL | 0.18
S. pneumoniae D39V [2], first compound 0.8 µg/mL, partner 0.215 µg/mL | 0.691
S. pneumoniae D39V [2], first compound 0.8 µg/mL, partner 0.43 µg/mL | 0.596
S. pneumoniae D39V [2], first compound 0.8 µg/mL, partner 0.86 µg/mL | 0.272

Details | Bliss interaction score
B. subtilis 168 [3] | 0.0149
S. aureus DSM 20231 | 0.169
S. aureus Newman | 0.0423
S. pneumoniae D39V [4] | 0.104
